# Source: PubChem BioAssay (NCI)
# Values joined by “and” are separate entries in the source; they are usually repeats but may differ in a detail not shown here. Identical values can stand only once.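 Cells were grown in 96-well plates and exposed to each compound for 48 hours at five concentrations; endpoints were interpolated linearly between bracketing concentrations, or set to the highest concentration if not reached. GI50 is the concentration that inhibits growth by half. TGI denotes the concentration required for complete inhibition of growth.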
# Tests used:
# Experiment in all cases: DTP human tumour cell line panel, 48 h
# CCRF-CEM leukemia = test system: CCRF-CEM leukemia
# COLO 205 colon = test system: COLO 205 colon
# SK-MEL-28 melanoma = test system: SK-MEL-28 melanoma
# U251 CNS = test system: U251 CNS
# HOP-92 NSCLC = test system: HOP-92 NSCLC
# MDA-MB-435 = test system: MDA-MB-435
# SF-295 CNS = test system: SF-295 CNS
# SK-MEL-2 melanoma = test system: SK-MEL-2 melanoma
# SNB-75 CNS = test system: SNB-75 CNS
# NCI-H522 lung = test system: NCI-H522 lung
SMILES,GI50 (CCRF-CEM leukemia) [µM],TGI (CCRF-CEM leukemia) [µM],GI50 (COLO 205 colon) [µM],TGI (COLO 205 colon) [µM],GI50 (SK-MEL-28 melanoma) [µM],TGI (SK-MEL-28 melanoma),GI50 (U251 CNS) [µM],TGI (U251 CNS),TGI (HOP-92 NSCLC) [µM],TGI (MDA-MB-435) [µM],TGI (SF-295 CNS),TGI (SK-MEL-2 melanoma) [µM],TGI (SNB-75 CNS),TGI (NCI-H522 lung)
Cc1nc2ccccc2c(/C=C/c2ccc(Cl)cc2)c1C(=O)/C=C/c1ccccc1,1.32,> 100,1.98,4.62,1.74,3.22 µM,1.61,3.07 µM,,,,,,
Cc1ccc([N+](=O)[O-])c2c(NCC(O)CO)ccnc12 (stereo not drawn),,> 100,,75.1,,> 100 µM,,> 100 µM,> 100,> 100,73.9 µM,53.9,> 100 µM,
C/C=C(/C)C(=O)O[C@H]1[C@H](O)CC(c2ccc3c(c2O)C(O)=C2C(=O)C4(OC)C(O)=C(C(N)=O)C(=O)[C@H](CC(=O)c5ccccc5O)C4CC2[C@@]3(C)OC)O[C@@H]1C (stereo partly drawn),,,,0.0288,1.06,2.56 µM and 2.45 µM,,0.148 µM and 0.117 µM,0.625,1.64,0.193 µM and 0.128 µM,0.0696,2.05 µM and 0.705 µM,1.21 µM and 1.83 µM
CCCC(=O)[O-].N.N.N.N.N.[Co+3].[O-][Cl+3]([O-])([O-])[O-],,> 100,,> 100,,> 100 µM,,> 100 µM,> 100,,> 100 µM,> 100,> 100 µM,> 100 µM
CC(=O)Nc1ccccc1NC1CC(C)N(c2ccccc2)N1C(C)=O (stereo not drawn),,> 10,,> 10,,> 10 µM,,,> 10,> 10,> 10 µM,,> 10 µM,
CC(C)(C)OC(=O)NCC(=O)N1CCN(C(=O)CNC(=O)OC(C)(C)C)CC1,,> 100,,> 100,,> 100 µM,,> 100 µM,> 100,> 100,> 100 µM,> 100,,7.12 µM
CCOC(=O)C(NC(=O)OC(C)(C)C)C(=O)OCC,,> 100,,> 100,,> 100 µM,,> 100 µM,> 100,> 100,,> 100,> 100 µM,> 100 µM
NCCCNCCCCN1CC1,,,,4.06,,> 20.1 µM,,> 26.2 µM,4.91,> 100,> 55.9 µM,,4.3 µM,11.4 µM
COC(=O)C(NC(=O)c1ccccc1)C(c1ccc(Cl)cc1)P(=O)(OC)OC (stereo not drawn),,> 100,,> 100,,> 100 µM,,> 100 µM,> 100,,> 100 µM,> 100,> 100 µM,> 100 µM
COC(=O)C1=C(C(=O)OC)SC2(S1)C(C(=O)OC)=C(C(=O)OC)Sc1c2ssc1=NC(C)(C)C,,,,3.22,,5.02 µM,,3.54 µM,2.76,3.08,27.7 µM,2.82,2.92 µM,
O=C1CSc2cc([N+](=O)[O-])ccc2N1,,> 100,,> 100,,> 100 µM,,> 100 µM,,,> 100 µM,> 100,> 100 µM,> 100 µM
COc1ccc(N2C(=O)C3c4[nH]c5ccccc5c4C4CCCCC4C3C2=O)cc1 (stereo not drawn),,29.1,,> 100,,42.4 µM,,38.6 µM,50.3,,36 µM,53.5,17.5 µM,> 100 µM
